Earlier results in patent US4826688A, “Controlled absorption pharmaceutical formulation” (501 Elan Corporation PLC., priority 1985, dated 1989).

Which “absorption from the gastro-intestinal tract” value (in words) does the source give for `C=C[C@H]1C[N@@]2CC[C@H]1C[C@@H]2[C@@H](O)c1ccnc2ccc(OC)cc12` [Quinidine sulphate] here?
Its value is “rapidly absorbed”.

And the “peak plasma concentrations are reached” value (quinidine sulphate, usual)?
The value was “about two”.

Which “excretion in the urine” value (in words) does the source give for `C=C[C@H]1C[N@@]2CC[C@H]1C[C@@H]2[C@@H](O)c1ccnc2ccc(OC)cc12` [Quinidine, (+)-α-(6-methoxyquinolin-4-yl)-α-(5-vinylquinuclidin-2-yl)methanol] here?
Its value is “almost entirely excreted in the urine”.
